The results in this text go back to patent USRE39420E1, “1,2-Diphenylpyrrole derivatives, their preparation and their therapeutic uses” (Sankyo Company, Limited, priority 1996, dated 2006).

Each structure is given as a SMILES string.

The subject of data set [1] is Carrageenan-induced Paw Edema in rats. Description: Carrageenan-induced paw edema test. Type of data set: in vivo, Wistar-Imamichi rats. As to conditions: Rattus norvegicus, oral, 3 hours after carrageenan, read-out: Inhibition Rate (%). The method, then: The same test compounds were subjected to the test as those in the Randall-Selitto test of Experiment 3. Wistar-Imamichi rats (males, 6 week old, body weights: 110-120 g) were used in this test.
The method of Winter, et al. [Proc. Soc. Exp. Biol. Med. 111, 544-547, (1962)] was slightly modified to perform the test [Sankyo Annual Research Report 39, 77-111, (1989)]. The rats were fasted for 16 hours prior to use. Inflammatory edema was induced by the subcutaneous injection of 0.05 ml of a 1% carrageenan (Viscarin 402) solution into the right hind paw of the animal. The test compounds were administered orally 30 minutes before injection of carrageenan. The volume of the right hind foot was measured with a Plethysmometer (Trade mark) (Ugo-Basile Co.) just before administration of the test compound and 3 hours after injection of carrageenan to determine the edema intensity [(right foot volume after 3 hours/right foot volume before injection)-1].
(In general: In the carrageenan paw model, swelling and tenderness develop within hours.)

Data set [2] relates to IL-1β production in human peripheral monocytes. Description: Inhibitory effect on IL-1β production in LPS-stimulated human peripheral monocytes. Type of data set: cell-based. As to conditions: Monocyte, LPS 10 μg/ml, 20 hours. The procedure: (§1) (1) Peripheral blood was collected from healthy human volunteers in the presence of heparin. After mixing it with an equal volume of phosphate-buffered saline (PBS, Nissui Pharmaceutical), the mixture was layered onto Ficoll Paque medium (Pharmacia) at the rate of 2:1 and centrifuged at 520×g at 25° C. for 20 minutes. After centrifugation, the monocyte layer was removed and suspended in RPMI 1640 (Nissui Pharmaceutical) containing 10% fetal calf serum (FCS). The monocytes were washed once with the same medium, placed in a plastic Petri dish, pre-treated with human plasma and incubated for 2 hours in the presence of 5% CO2 to cause them to adhere to the dish. After incubation, the Petri dish was washed twice with PBS to remove the non-adherent cells. Thereafter, PBS containing 5% FCS and 0.2% EDTA was added to the Petri dish and the dish was allowed to stand undisturbed for 15 minutes at 4° C. The monocytes were recovered from the dish by pipetting. The cells were finally suspended in RPMI 1640 at a concentration of 1.25×10^5 cells/ml. (2) Culture of Human Monocytes
(§2) A 40 μl solution of the test compound and 40 μl of lipopolysaccharide (LPS; E. coli, 0.26:B6, Difco), adjusted to a final concentration of 10 μg/ml, were added to 320 μl of cell suspension. The resulting mixture was then cultured for 20 hours in the presence of 5% CO2 and the supernatant was removed at the end of cultivation to assay IL-1β and TNFα. The test compound was dissolved in dimethyl sulfoxide and diluted by a factor of 100 with FCS to reach 10 times the final concentration (the final concentrations of dimethyl sulfoxide and FCS were 0.1% and 10%, respectively).
(§3) The amount of IL-1β was measured with a commercially available ELISA kit (Cayman), after diluting the supernatant medium by a factor of 15 or 30 with the ELISA buffer. The amount of TNFα was similarly measured by a ELISA kit (Genzyme) after diluting the supernatant by a factor of 2.
(§4) The IC50 was calculated from the regression line determined by the inhibition rates and the concentrations of the test compound.

The subject of data set [3] is TNFα production in human peripheral monocytes. Description: Inhibitory effect on TNFα production in LPS-stimulated human peripheral monocytes. In kind it is cell-based. As to conditions: Monocyte, LPS 10 μg/ml, 20 hours. The method, then: as §1, §2, §3, §4
In data set [4] the test system is yeast-inflamed pain in rats. Description: Analgesic effect on yeast-inflamed pain in rats (Randall-Selitto method). As to conditions: Rattus norvegicus, oral, pain threshold 0.5, 1 and 2 hours after administration, read-out: Efficacy Rate (No. of animals in which drug was effective/No. of animals used in test) (converted). In kind it is in vivo, Wistar-Imamichi rats. The procedure:
The compound was suspended in 0.5%tragacanth and administered orally at a volume of 5 ml/kg. The control group was administered with 0.5% tragacanth only as a vehicle.
Wistar-Imamichi rats (males, 5 week old, body weights: 80-100 g) were used in this test.
The test was conducted in accordance with the method of Winter and Flataker [J. Pharmacol. Exp. Ther. 150, 165-171, (1965)], which is a modification of the original method of Randall and Selitto [Arch. Int. Pharmacodyn. Ther. 111, 405-419, (1957)]. The rats were fasted for 16 hours prior to use. Inflammation was induced by subcutaneous injection of 0.1 ml of a suspension of 20% beer yeast (Sigma) into the right hind footpad of the animal. After 4.5 hours, increasing pressure was applied to the inflamed footpad at a constant speed using an Analgesy meter (Trade mark) (Ugo-Basile Co.).
First the average of pain threshold values at each time point (0.5, 1, and 2 hr) was calculated in a control group. If a pain threshold value exceeded 2 times the control average value at the same time point even once in the drug-treated groups, then the animal was considered to indicate efficacy. Efficacy rates of the drug were estimated by the evaluation method of Blake [J. Pharm. Pharm. 19, 367-373, (1967)].

Data set [5] relates to LTB4 production from human peripheral monocytes. Description: Inhibitory effect on LTB4 production from human peripheral monocytes. As to conditions: Monocyte, LTB4 in culture supernatant, ELISA. In kind it is cell-based. The method, then:
The isolation of monocytes was carried out as described in Experiment 2-(1).
The cell culture was carried out as described in Experiment 2-(2).
The supernatant of the culture medium after incubation was subjected to the ELISA assay (Cayman). IC50 values were calculated by the least square method from the regression line determined by the inhibition rates and the doses.
Background: An ELISA detects its analyte on a solid surface through an enzyme-linked reagent.

A further data set deals with gastric mucosa. Description: Irritative effect on gastric mucosa. In kind it is in vivo, Wistar rats. As to conditions: oral; dose producing 50% incidence of gastric ulcers, 3.5 hours after dosing. The method, then: Experiments were performed according to the method described by Jahn and Adrian [Arzneim.-Forsch. 19, 36, (1969)]. Male Wistar rats weighing approximately 120 g were fasted for 16 hours before the experiment. The drugs were administered orally to rats as described in Experiment 3. Three and the half hours after dosing, the animals were killed under ether-anesthesia and the stomachs were placed into 1% of formalin. The stomach was opened by cutting along the greater curvature and the number and length of lesions were counted under a microscope (6.3×10). The ulcerogenicity in each animal was assessed according to Hitchens et. al. [Pharmacologist 9, 242, (1967)]. Incidence was determined as the rate of rats with 4 or more ulcers of more than 0.5 mm length, and UD50's (doses producing 50% incidence) were calculated from the incidence and the dose by probit (=probability unit) method.

A further data set relates to yeast-induced fever. Description: Antipyretic effect on yeast-induced fever. Type of data set: in vivo, Wistar-Imamichi rats. As to conditions: Dose: 0.4 mg/kg, oral; mean of 1 and 2 hours after dosing. The procedure: The method of Roszkowski et al. [J. Pharmacol. Exp. Ther. 179, 114, (1971)] was slightly modified to perform the test. The test compound was administered in the same manner as in Experiment 3. Male Wistar-Imamichi rats (6 week old, body weights: approximately 120 g) were used in the test. Yeast (Brewer's yeast, Sigma) was suspended in physiological saline to a concentration of 25%, finely crushed in an agate mortar, and injected subcutaneously into the backs of the rats under ether-anesthesia at a volume of 2 ml/rat. The rats were fasted after the injection of yeast. On the following day (19 hours after the yeast injection), a catheter-type thermistor thermometer (Japan Koden, MGA III) was inserted approximately 5 cm into the rectum to measure the temperature of the animals. […] Rectal temperatures were measured 1 and 2 hours after administration of the test compound, and fever temperature was calculated by subtracting the normal temperature of healthy animals measured simultaneously. Inhibition rate of the group treated with the compound relative to the control group was calculated by using the mean value at 1 and 2 hours after dosing.

Data set [6] relates to scald-induced Pain in rats. Description: Scald-induced pain test. As to conditions: oral; pain response time, mean of 1 and 2 hours after dosing. Type of data set: in vivo, Wistar-Imamichi rats. The method, then: The test was conducted in accordance with the method of Iizuka and Tanaka [Jpn. J. Pharmacol. 70, 697, (1967)]. The test compound was administered in the same manner as in Experiment 3. Male Wistar-Imamichi rats (4-5 week old, body weights: approximately 100 g) were used after fasting for 16 hours. The right hind foot of the animal was immersed in hot water at 57° C. for 6 seconds to induce scald under ether-anesthesia. Two hours later, the scald foot of the rat was irritated by immersing in hot water at 40° C. for 5 seconds, and the animal was returned to the cage. […] Lifting up the scalded foot or licking it without coming in contact with the metal cage were considered to be pain responses. Pain response time was determined as the total time of the pain response during the 30-second observation period. […] Pain response time was again measured 1 and 2 hours after dosing and the mean value was determined. Using the mean values, inhibition rates were calculated relative to the control group. ID50 was calculated from the regression line determined by the inhibition rates and the doses.

For orientation: inhibition means the percentage by which the read-out fell short of the control. A high value points to strong suppression. On to `CS(=O)(=O)c1ccc(-c2ccc(F)n2-c2ccc(F)cc2)cc1` [Example 41, 5-Fluoro-1-(4-fluorophenyl)-2-(4-methylsulfonylphenyl)pyrrole], for which the inhibition in vivo at 50 mg/kg in data set [1] stood at 60%. Further, 10 µM produced 51.2% inhibition in data set [2].
`COc1ccc(-n2cccc2-c2ccc(S(C)(=O)=O)cc2)cc1F` [Example 54, 1-(3-Fluoro-4-methoxyphenyl)-2-(4-methylsulfonylphenyl)pyrrole] registered an inhibition at 10 µM in [3] of 54.7%.
`COc1ccc(-c2cc(Cc3ccc(OC)c(OC4CCCC4)c3)cn2-c2ccc(S(N)(=O)=O)cc2)cc1` [Example 81, 4-(3-Cyclopentyloxy-4-methoxybenzyl)-2-(4-methoxyphenyl)-1-(4-sulfamoylphenyl)pyrrole]: in [3], testing at 10 µM gave an inhibition of 46.1%.
On to `CS(=O)(=O)c1ccc(-c2cccn2-c2ccc(F)cc2F)cc1` [Example 7, 1-(2,4-Difluorophenyl)-2-(4-methylsulfonylphenyl) pyrrole], for which, in data set [1], the inhibition in vivo at 50 mg/kg turned out to be 56%. In [4], the responders at 12.5 mg/kg is 100%. The compound further yielded an inhibition at 10 µM in data set [2] of 42.6%.
Broadly, the IC50 is the concentration that inhibits the measured activity by half. A low value points to greater potency. Turning to `Cc1cc(-c2ccc(C)c(C)c2)n(-c2ccc(S(N)(=O)=O)cc2)c1` [Example 78, 4-Methyl-2-(3,4-dimethylphenyl)-1-(4-sulfamoylphenyl)pyrrole], in data set [1], the inhibition in vivo at 50 mg/kg turned out to be 66%. This compound also showed an IC50 in data set [5] of 310 nM. For the same compound, in [4], the responders at 12.5 mg/kg is 100%. Moreover, the “UD50” value in the data set on gastric mucosa is on record as >100 mg/kg.
Take `CSc1ccc(-n2c(C)ccc2-c2ccc(S(N)(=O)=O)cc2)cc1` [Example 90, 5-Methyl-1-(4-methylthiophenyl)-2-(4-sulfamoylphenyl)pyrrole]: in [1], the inhibition in vivo at 50 mg/kg turned out to be 64%. This compound also came in with an inhibition at 10 µM in data set [2] of 62.2%.
`CS(=O)(=O)c1ccc(-c2cc(C(F)F)cn2-c2ccc(F)cc2)cc1` [Example 49, 1-(4-Fluorophenyl)-4-difluoromethyl-2-(4-methylsulfonylphenyl)pyrrole] showed an inhibition at 10 µM in [3] of 40.9%.
For `CSc1ccc(-n2cc(C)cc2-c2ccc(S(N)(=O)=O)cc2)cc1` [Example 84, 4-Methyl-1-(4-methylthiophenyl)-2-(4-sulfamoylphenyl)pyrrole], in the data set on yeast-induced fever, the “Inhibition Rate (%)” value is listed as 64%. Further, the inhibition in vivo at 50 mg/kg in data set [1] stood at 66%. Moreover, the responders at 12.5 mg/kg in data set [4] was 100%. For the same compound, the “UD50” value in the data set with gastric mucosa is >100 mg/kg.
Take `CCCOc1ccc(-c2cc(C)cn2-c2ccc(S(N)(=O)=O)cc2)cc1` [Example 68, 4-Methyl-2-(4-propoxyphenyl)-1-(4-sulfamoylphenyl)pyrrole]: at 10 µM the inhibition in [3] was 42.6%.
For the compound `CCOc1ccc(-c2cc(C)cn2-c2ccc(S(N)(=O)=O)cc2)cc1` [Example 67, 2-(4-Ethoxyphenyl)-4-methyl-1-(4-sulfamoylphenyl) pyrrole], the “ID50” value in data set [6] is 1.6 mg/kg. For the same compound, the “Inhibition Rate (%)” value in the data set with yeast-induced fever turned out to be 78%. The inhibition in vivo at 50 mg/kg in data set [1] turned out to be 64%. In data set [4], the responders at 12.5 mg/kg is 100%. The “UD50” value in the data set with gastric mucosa is listed as >100 mg/kg.
In general, melting point refers to the temperature, or range, at which the solid turns liquid. In the case of `CS(=O)(=O)c1ccc(-c2ccc(C(F)(F)F)n2-c2ccc(F)cc2)cc1` [Example 44, 5-Trifluoromethyl-1-(4-fluorophenyl)-2-(4-methylsulfonylphenyl)pyrrole], the melting point fell in the range of 136 to 139 °C.
